Consider 4 compounds from ChEMBL document CHEMBL5150040, “Bis-aryl-α,β-unsaturated ketone (ABK) chaperonin inhibitors exhibit selective cytotoxicity to colorectal cancer cells that correlates with levels of aberrant HSP60 in the cytosol” (Bioorg Med Chem, 2022).

Each structure is given as a SMILES string. Calls of active or inactive are those of the source. No cut-off for these calls is given here. A value given as a limit tells only on which side of the number the result lay.

For data set [1], the system named is HCT-116. Description: Induction of necrotic cell death in human HCT-116 cells at 0.1 to 100 uM incubated for 48 hrs by AnnexinV-FITC/PI staining based flow cytometry. Format: functional. The conditions noted are these: dose 0.1-100 µM. Background: A flow cytometer gives signals particle by particle.
The test system of data set [2] is HCT-116. As to the kind of experiment: Induction of apoptosis in human HCT-116 cells at 0.1 to 100 uM incubated for 48 hrs by AnnexinV-FITC/PI staining based flow cytometry. Format: functional, cell-based. The conditions noted are these: dose 0.1-100 µM.
Data set [3] concerns HCT-116. As to the kind of experiment: Cytotoxicity against human HCT-116 cells assessed as reduction in cell viability incubated for 48 hrs by AlamarBlue-based assay relative to control. Format: functional.
The test system of data set [4] is HCT-116. As to the kind of experiment: Cytotoxicity against human HCT-116 cells assessed as reduction in cell viability incubated for 48 hrs by AlamarBlue-based assay. It counts as functional. The conditions noted are these: HCT-116, 48 h. A general note: Resazurin is reduced to fluorescent resorufin, in cell work by metabolically active cells.
The nature of data set [5]: Inhibition of Escherichia coli GroEL expressed in NEB-5-alpha Escherichia coli cells/Escherichia coli GroES expressed in Escherichia coli BL21(DE3) cells assessed as inhibition of GroEL/ES-mediated dRho refolding by reporter analysis.
Data set [6] concerns HCT-116. Description: Inhibition of clonogenicity in human HCT-116 cells at > 1 uM incubated for 72 hrs followed by incubation in fresh medium for 7 days by crystal violet staining based analysis. It counts as functional, cell-based.
Data set [7] concerns HCT-116. Description: Inhibition of cell migration in human HCT-116 cells measured after 26 hrs by scratch wound healing assay. The conditions noted are these: HCT-116, 26 h. It counts as functional, cell-based.
The nature of data set [8]: Inhibition of refolded rhodanese reporter enzyme (unknown origin). Set-up: species or system Homo sapiens.
Data set [9] in a line: Selectivity index, ratio of CC50 for cytotoxicity against non-cancerous cells to EC50 for cytotoxicity against human HCT-116 cells. Format: toxicity, cell-based. The conditions noted are these: non-cancerous cells versus HCT-116 cells, read-out: Ratio CC50/EC50.
The nature of data set [10]: Inhibition of human mitochondrial HSP60 expressed in Escherichia coli Rosetta 2 (DE3) cells/human mitochondrial HSP10 expressed in Escherichia coli Rosetta 2 (DE3) pLysS cells assessed as inhibition of […]-mediated dMDH refolding by reporter analysis. It counts as mitochondria, Mitochondria.
The next data set concerns HT-29. Description: Cytotoxicity against human HT-29 cells assessed as reduction in cell viability incubated for 48 hrs by AlamarBlue-based assay. It counts as functional. The conditions noted are these: HT-29, 48 h.
A short description of data set [11]: Cytotoxicity against human FHs74Int cells assessed as reduction in cell viability incubated for 48 hrs by AlamarBlue-based assay. Format: toxicity.
The nature of data set [12]: Inhibition of Escherichia coli GroEL expressed in NEB-5-alpha Escherichia coli cells/Escherichia coli GroES expressed in Escherichia coli BL21(DE3) cells assessed as inhibition of GroEL/ES-mediated dMDH refolding by reporter analysis.
A further data set concerns DLD-1. Description: Cytotoxicity against human DLD-1 cells assessed as reduction in cell viability incubated for 48 hrs by AlamarBlue-based assay. Format: functional. The conditions noted are these: DLD-1, 48 h.
Data set [13] is described as follows: Cytotoxicity against human FHC cells assessed as reduction in cell viability incubated for 48 hrs by AlamarBlue-based assay. It counts as toxicity.
In data set [14] the test system is HCT-116. As to the kind of experiment: Cytotoxicity against human HCT-116 cells assessed as reduction in cell viability at 0.01 to 100 uM by Trypan Blue staining based analysis. It counts as functional. The conditions noted are these: dose 0.01-100 µM, time 24-48 hrs, TDE = time-dependent effect.
Data set [15] can be described thus: Inhibition of refolded MDH reporter enzyme (unknown origin). Set-up: species or system Homo sapiens.
The subject of data set [16] is HCT-116. Description: Cytotoxicity against p53-/- human HCT-116 cells assessed as reduction in cell viability incubated for 48 hrs by AlamarBlue-based assay. It counts as functional. The conditions noted are these: HCT-116, 48 h.
A further data set deals with Escherichia coli. As to the kind of experiment: Inhibition of Escherichia coli GroEL expressed in NEB-5-alpha Escherichia coli cells/Escherichia coli GroES expressed in Escherichia coli BL21(DE3) cells assessed as inhibition of GroEL/ES-mediated dMDH refolding measured after 24 hrs dialysis period by reporter analysis.
In data set [17] the test system is HCT-116. Description: Cytotoxicity against human HCT-116 cells assessed as reduction in cell viability incubated for 72 hrs by AlamarBlue-based assay relative to control. Format: functional.

As a reminder, the EC50 is the concentration needed to bring the measured effect to its halfway point. A word on the IC50: it is the concentration that inhibits the measured activity by half. A word on the CC50: it is the concentration that lowers cell viability or growth by half. Take `O=C(/C=C/c1cccc([N+](=O)[O-])c1)c1ccc(NC(=O)c2cccs2)cc1`: the result with HCT-116 [1] and with HCT-116 [2] was Active. Moreover, the figures for the Activity in the data set with HCT-116 [3] and in the data set with HCT-116 [14] were 100% and “Tde”, respectively. Also, the EC50 with HCT-116 [4] is 2.6 µM; with HCT-116 [7] it was 13 µM; in the data set on HT-29, 2.5 µM; with DLD-1, 11 µM; with HCT-116 [16] it was 2.5 µM. In addition, the IC50 was 1.5 µM in data set [5]; more than 100 µM in [8]; 2.2 µM in [10]; 0.41 µM in data set [12]; more than 63 µM in data set [15]. In the data set with HCT-116 [6], the inhibition entry is “Active”. In data set [9], the selectivity ratio was 19. Further, the half-maximal cytotoxic concentration (CC50) at 48 h in data set [11] is 24 µM; in data set [13], 73 µM.

Consider `O=C(/C=C/c1cccc([N+](=O)[O-])c1)c1ccc(NC(=O)c2ccco2)cc1`, for which the outcome in the data set on HCT-116 [1] and in the data set with HCT-116 [2] was Active. The EC50 in the data set with HCT-116 [4] worked out at 3.4 µM; with HT-29, 3.5 µM; in the data set on DLD-1 it was 22 µM; in the data set with HCT-116 [16], 4.1 µM. Also, the IC50 in [5] was 2.2 µM; in data set [8], more than 100 µM; in [10] it was 2.5 µM; in data set [12], 0.73 µM; in [15] it was more than 63 µM. Also, the inhibition entry in the data set on HCT-116 [6] and in the data set on Escherichia coli was “Active” each time. The selectivity ratio in data set [9] was 23. Moreover, the cytotoxic concentration (CC50) at 48 h was 54 µM in data set [11] and more than 100 µM in [13]. Moreover, the Activity result is “Tde” with HCT-116 [14] and 100% with HCT-116 [17].

Turning to `O=C(/C=C/c1ccccc1)c1ccc(NC(=O)c2cccs2)cc1`, the EC50 was determined as 12 µM with HCT-116 [4], 28 µM in the data set with HT-29, 35 µM in the data set with DLD-1 and 16 µM with HCT-116 [16]. Also, the IC50 in data set [5] was 20 µM; in data set [8] it was more than 100 µM; in data set [10], 4.7 µM; in [12], 3.8 µM; in [15] it was more than 63 µM. Further, in data set [9], the selectivity ratio amounted to 4.9. The half-maximal cytotoxic concentration (CC50) at 48 h came out at 40 µM in data set [11] and 83 µM in data set [13].

For `O=C(/C=C/c1ccc([N+](=O)[O-])cc1)c1ccc(O)c(O)c1`, the half-maximal effective concentration (EC50) worked out at 5.8 µM in the data set with HCT-116 [4], 8.2 µM in the data set on HT-29, 9.6 µM with DLD-1 and 6.1 µM in the data set on HCT-116 [16]. Also, the IC50 in data set [5] is 1.3 µM; in data set [8] it was 45 µM; in data set [10] it was 6.2 µM; in [12] it was 2 µM; in [15] it was more than 63 µM. For the same compound, the selectivity ratio in data set [9] came out at 3.4. Moreover, the CC50 at 48 h in data set [11] amounted to 11 µM; in data set [13], 28 µM.
